Reference: patent US20250154174A1, “BICYCLIC HETEROCYCLES AS MRGPRX2 ANTAGONISTS” (Incyte Corporation, priority 2023, published 2025)

What was measured:
Type in all cases: cell-based
MRGPRX2 [1] = target: T1, MRGPRX2 (Homo sapiens, UniProt Q96LB1); test: MRGPRX2 β-Arrestin assay; set-up: host or cells: PathHunter CHO-K1; conditions: PathHunter CHO-K1 MRGPRX2 β-Arrestin cell line; agonist Cortistatin 14 0.25 μM
T1 sequence (Q96LB1 1-330): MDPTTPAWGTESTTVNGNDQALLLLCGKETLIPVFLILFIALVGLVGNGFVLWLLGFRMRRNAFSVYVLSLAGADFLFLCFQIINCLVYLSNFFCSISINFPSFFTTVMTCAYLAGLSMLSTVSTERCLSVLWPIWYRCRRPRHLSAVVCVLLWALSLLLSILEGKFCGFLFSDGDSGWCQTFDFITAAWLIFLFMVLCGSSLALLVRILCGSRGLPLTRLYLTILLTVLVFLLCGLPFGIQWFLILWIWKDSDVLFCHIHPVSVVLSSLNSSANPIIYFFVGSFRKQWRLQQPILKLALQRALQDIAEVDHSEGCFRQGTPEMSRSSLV
Source text: This assay measures compound inhibition of β-Arrestin recruitment, which is part of the G protein-independent pathway that results from the ligand-activated GPCR phosphorylation by specific GPCR kinases. The PathHunter CHO-K1 MRPGRX2 B-Arrestin Cell line stably expressing ProLink tagged MRGPRX2 and Enzyme Acceptor Tagged B-Arrestin was purchased from Eurofins DiscoverX, (Fremont, CA).
The cells were maintained in culture medium from the Europhins DiscoverX Cell Culture Kit-107 which includes FBS, hygromycin B and G418. For the assay, the cells were harvested and were resuspended with Cell Plating Reagent 2 (Eurofins DiscoverX). Cells were added 10000 cells in 25 μL/well to a 384-well black cell culture plate (Greiner VWR, Radnor, PA) which contained 125 nL/well of compound at a selected serially diluted concentration range or DMSO. The plate was incubated at 37° C. with 5% CO2 for 1 h. 2 μL/well of agonist Cortistatin 14 was diluted in Protein Dilution Buffer, (Eurofins DiscoverX) for a final concentration of 0.25 μM, was added and the plate was incubated at 37° C. with 5% CO2 for 90 min. 14 μL/well of Detection Reagent Mix (PathHunter Detection Kit, Eurofins DiscoverX) was added to the plates and further incubated for 1 h in the dark. Plates were read on the PHERAstar microplate reader (BMG Labtech Cary, NC) measuring luminescence 0.1 to 1 s per well. […]

MRGPRX2 [2] = target: T1, MRGPRX2; test: MRGPRX2 IP1 HTRF assay; set-up: host or cells: CHO-K1; conditions: CHO-K1 cells stably expressing human MRGPRX2; agonist Cortistatin 14 1 μM; IP1 accumulation
Experimental: This assay measures compound inhibition of myo-Inositol 1 phosphate (IP1) accumulation in CHO-K1 cells. Chinese hamster ovary (CHO-K1) cells stably expressing human MRGPRX2 were purchased from GenScript (Piscataway, NJ).
For the HTRF IP1 determination, an IP-One GqKit (Perkin Elmer Cisbio, Waltham, MA), which includes all reagents and buffers in this protocol, was used. The cells were maintained in culture medium (Ham's F-12K) containing 10% (v/v) FBS, and 200 μg/mL Zeocin. For the assay, the cells were harvested and resuspended in culture medium with 2% FBS and without Zeocin, then were passed through a 40 μm filter. Cells were added at 20000 cells in a 5 μL/well to a 384-well white small volume cell culture plate (Greiner VWR, Radnor, PA) which contained 50 nL/well of test compound serially diluted at a selected concentration range in DMSO. 5 μL/well of prepared 2× Stimulation Buffer2 was then added to plates and was incubated at 37° C. with 5% CO2 for 1 h. 5 μL/well of agonist Cortistatin 14 (Bio-TechneR&D Systems, Minneapolis, MN) in 1×Stimulation Buffer 2, for a 1 μM final concentration, was then added to plates and incubated at 37° C. with 5% CO2 for 1 h. 6 μL/well of 1:20 diluted Detection Reagent Mix (d2 and Cryptate) was added to the plates and incubated for 1 h in the dark. Plates were read on the PHERAstar microplate reader (BMG Labtech Cary, NC) to determine the HTRF ratio of the acceptor and donor emission signals. The IP1 concentrations were calculated from a standard curve following the IP-One GQ kit instructions. Wells with DMSO only and wells with high concentration of reference antagonist were used as controls for normalization. Compound IC50 curves were globally fitted with 3- or 4-parameter Hill equation in a Genedata Screener (Genedata Basel, Switzerland).

MRGPRX2 [3] = target: T1, MRGPRX2; test: MRGPRX2 FLIPR calcium mobilization assay; set-up: host or cells: CHO-K1; conditions: CHO-K1 cells stably expressing human MRGPRX2; agonist Cortistatin-14 at EC80; Ca2+ release
Experimental: Chinese hamster ovary (CHO-K1) cells stably expressing human MRGPRX2 were purchased from Genescript (Piscataway, NJ). The cells were maintained in culture medium (Ham's F-12K) containing 10% (v/v) FBS, 200 μg/mL Zeocin, 100 units/mL penicillin G and 100 μg/mL streptomycin (Life Technologies, Carlsbad, CA). For the assay, the cells were harvested and resuspended with culture medium without Zeocin before plating at 8000 cells per well in 20 μL in 384-well black clear bottom cell culture plates (VWR, Radnor, PA). After 24 h culture at 37° C. and 5% CO2, the cells were loaded with 20 μL/well of calcium dye (FLIPR Calcium 6 Assay Kit, Molecular Devices, San Jose, CA) diluted in loading buffer (1× Hank's Balanced Salt Solution (HBSS), 5 mM probenecid, 20 mM 4-(2-hydroxyethyl)-1-piperazineethanesulfonic acid (HEPES), pH 7.4, VWR, Radnor, PA) followed with 45 min. incubation at 37° C. and 40 min. at r.t. in the dark. Cells were then treated with the addition of 10 uL/well test compounds with a range of increasing concentrations diluted in the assay buffer (1×HBSS, 20 mM HEPES, pH 7.4, VWR, Radnor, PA) with FLIPR Penta (Molecular Devices. San Jose, CA) and incubated for 30 min. at r.t. Ca^2+ release was measured with FLIPR Penta with 10 s basal fluorescence measurement, then 12.5 μL of 5× agonist Cortistatin-14 (Tocris, Minneapolis, MN) at final concentration corresponding to the EC80 were added followed with continued fluorescence signal monitoring for an additional 110 s. The base line adjusted (median of first 10s base line) max value of the Relative Fluorescence Unit (RFU) was plotted against compound concentrations. Wells with no compound were served as the positive controls, and wells with high concentration of reference antagonist were used as negative controls. IC50 curves were globally fitted with 3- or 4-parameter Hill equation in a Genedata Screener (Genedata Basel, Switzerland).

Measured: IC50

FC(F)(F)c1cn2c(N[C@H]3CCC[C@@H](Nc4nccc5ncccc45)C3)cccc2n1 [Example 3, (1R,3S)—N^1-(1,6-Naphthyridin-5-yl)-N^3-(2-(trifluoromethyl)imidazo[1,2-a]pyridin-5-yl)cyclohexane-1,3-diamine]
0.1 to 100 nM: all assays above

FC(F)(F)c1cn2c(N[C@H]3CC[C@@H](Nc4nccn5cncc45)CC3)cccc2n1 [Example 5, (1s,4s)-N^1-(Imidazo[1,5-a]pyrazin-8-yl)-N^4-(2-(trifluoromethyl)imidazo[1,2-a]pyridin-5-yl)cyclohexane-1,4-diamine]
0.1 to 100 nM: all assays above
